# Results taken from paper PMC7253177, “Gain of channel function and modified gating properties in TRPM3 mutants causing intellectual disability and epilepsy” (eLife, 2020).
# Experiments:
# TRPM3 P1090Q mutant = target: T1, TRPM3 P1090Q mutant (Homo sapiens, UniProt Q9HCF6, P1115Q); assay: Fura-2-based calcium imaging, HEK293T cells transfected with P1090Q hTRPM3; format: cell-based; set-up: expressed in transfected cells; host or cells: HEK293T
# T1 sequence (Q9HCF6 1-1325 isoform Q9HCF6-10 P1090Q): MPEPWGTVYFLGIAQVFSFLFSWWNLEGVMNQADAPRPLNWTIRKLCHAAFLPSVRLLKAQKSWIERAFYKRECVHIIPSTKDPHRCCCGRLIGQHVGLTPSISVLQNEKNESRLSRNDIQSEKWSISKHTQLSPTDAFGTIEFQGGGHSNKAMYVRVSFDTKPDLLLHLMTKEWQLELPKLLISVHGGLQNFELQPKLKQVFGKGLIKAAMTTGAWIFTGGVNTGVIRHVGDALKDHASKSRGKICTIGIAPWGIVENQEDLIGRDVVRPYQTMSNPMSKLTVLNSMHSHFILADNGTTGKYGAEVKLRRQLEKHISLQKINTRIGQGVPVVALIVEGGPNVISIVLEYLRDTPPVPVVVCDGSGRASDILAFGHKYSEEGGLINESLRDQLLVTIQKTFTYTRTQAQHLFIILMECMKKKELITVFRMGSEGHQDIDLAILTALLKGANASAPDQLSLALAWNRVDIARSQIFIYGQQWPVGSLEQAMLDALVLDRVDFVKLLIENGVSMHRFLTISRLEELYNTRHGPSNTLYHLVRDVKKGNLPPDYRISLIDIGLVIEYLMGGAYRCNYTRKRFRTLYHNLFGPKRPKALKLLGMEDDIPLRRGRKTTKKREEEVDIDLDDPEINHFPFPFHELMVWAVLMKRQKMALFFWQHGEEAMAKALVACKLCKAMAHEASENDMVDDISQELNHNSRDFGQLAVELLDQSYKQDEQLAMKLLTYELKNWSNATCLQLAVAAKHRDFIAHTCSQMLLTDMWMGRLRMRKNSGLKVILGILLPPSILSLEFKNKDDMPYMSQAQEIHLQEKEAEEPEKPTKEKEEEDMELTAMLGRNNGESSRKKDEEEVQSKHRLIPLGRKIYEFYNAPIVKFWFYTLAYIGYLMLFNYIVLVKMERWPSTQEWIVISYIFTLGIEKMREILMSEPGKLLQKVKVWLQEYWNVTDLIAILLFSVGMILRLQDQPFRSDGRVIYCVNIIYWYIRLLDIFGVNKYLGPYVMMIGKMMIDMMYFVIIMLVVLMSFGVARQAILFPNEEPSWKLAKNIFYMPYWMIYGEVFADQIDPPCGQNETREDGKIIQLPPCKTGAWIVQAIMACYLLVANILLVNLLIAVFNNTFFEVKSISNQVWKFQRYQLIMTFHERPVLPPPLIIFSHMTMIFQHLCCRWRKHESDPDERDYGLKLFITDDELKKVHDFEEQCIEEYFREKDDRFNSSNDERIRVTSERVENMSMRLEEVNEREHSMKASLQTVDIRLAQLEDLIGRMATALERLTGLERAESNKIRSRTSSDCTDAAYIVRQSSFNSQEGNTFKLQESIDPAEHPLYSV
# Method: (§1) HEK293T cells ([Graham et al., 1977]) were cultured as described previously ([Vriens et al., 2007]) and used up in passage number 14. HEK293T cells were tested for the lack of mycoplasma and transiently transfected with 2 µg of DNA using TransIT transfection reagent (Mirus) 36–48 hr before the measurements. In case of co-cultures a ratio of 1:1 between hTRPM3-YFP WT and mutants-YFP DNA was used.
# All mutants were obtained by the standard PCR overlap extension method using hTRPM3 directly linked to YFP from pCAGGS/IRES-GFP vector ([Vriens et al., 2007]). Accuracy of all mutant sequences was verified by sequencing of the entire DNA constructs.
# Changes in intracellular calcium concentration were monitored using ratiometric Fura-2-based fluorimetry. Cells were loaded with 2 µM Fura-2-acetoxymethyl ester (Alexis Biochemicals) for 30 min at 37°C. Fluorescence was measured during alternating illumination at 340 and 380 nm using Eclipse Ti (Nikon) fluorescence microscopy system, and absolute calcium concentration was calculated from the ratio of the fluorescence signals at these two wavelengths (R = F340/F380) as [Ca^2+]=Km × (R-Rmin)/(Rmax-R), where Km, Rmin and Rmax were estimated from in vitro calibration experiments with known calcium concentrations. The bath solution contained (in mM) 138 NaCl, 5.4 KCl, 2 CaCl2, 2 MgCl2, 10 glucose, and 10 HEPES, pH 7.4. […]
# WT:P1090Q TRPM3 mixture = assay: Whole-cell patch clamp, HEK293T cells co-transfected with WT and P1090Q TRPM3 (1:1); format: cell-based, human; settings: WT:P1090Q 1:1; Clt 10 µM, PS 40 µM
# Text: (§2) Considering that all reported DEE patients were heterozygous for the TRPM3 substitutions ([Dyment et al., 2019]), and that TRPM3 is functional as a tetramer, it can be expected that patient cells express a mixture of WT and mutant channel subunits, potentially leading to the formation of heteromultimeric channels with variable stoichiometry. To mimic the heterozygous condition in vitro, we performed a limited number of experiments in cells co-transfected with a mixture of cDNA encoding WT and mutant TRPM3 in a 1:1 ratio.
# as §1
# (§3) Standard whole-cell patch-clamp recordings were performed with an EPC-10 amplifier and the PatchMasterPro Software (HEKA Elektronik, Lambrecht, Germany). Current measurements were performed at a sampling rate of 20 kHz and currents were digitally filtered at 2.9 kHz. In all measurements, 70% of the series resistance was compensated. […]
# WT:V990M TRPM3 mixture = assay: Whole-cell patch clamp, HEK293T cells co-transfected with WT and V990M TRPM3 (1:1); format: cell-based, human; settings: WT:V990M 1:1; Clt 10 µM
# Text: as §2, §1, §3
compound,measurement,setting,value
CCC1(c2ccccc2)C(=O)NCNC1=O [primidone],Effect on basal [Ca2+]i,"TRPM3 P1090Q mutant; primidone 100 µM, isosakuranetin 50 µM",reduced [Ca^2+]i
pregnenolone sulfate [PS],PS concentration giving robust calcium responses (as low as),TRPM3 P1090Q mutant,1 µM
"Clc1ccccc1C(c1ccccc1)(c1ccccc1)n1ccnc1 [Clt, clotrimazole]",Effect of pre-incubation on PS responses (whole-cell currents),WT:P1090Q TRPM3 mixture,"first a potentiation of the PS responses by pre-incubation of Clt, followed by a time-dependent current inhibition"
same,Activation of whole-cell currents in the absence of PS,WT:V990M TRPM3 mixture,activated robust currents
